Laboratory results published in patent US4091102A, “Anti-depressant trans-hexahydropyrido[3,4-b]indoles” (Endo Laboratories, Inc., priority 1976, dated 1978).
Like-named read-outs stand apart in the source and are kept apart here.

Test system: tetrabenazine-induced sedation and depression in mice
Assay: Antagonism of tetrabenazine-induced depression in mice orally at 1 hour post-drug
Assay type: in vivo, Carworth CF1 S female mice
Settings: Mus musculus, oral, 1 hour post-drug (30 minutes after tetrabenazine 32 mg/kg intraperitoneally)
Source text: A standard procedure for detecting and comparing the antidepressant activity of compounds in this series for which there is good correlation with human efficacy is the prevention of tetrabenazine-induced sedation and depression in mice. (Everett, "The Dopa Response Potentiation Test and Its Use in Screening for Antidepressant Drugs", pp. 164-167 in "Antidepressant Drugs" [Proceedings of the First International Symposium], S. Garattini and M. N. G. Dukes, eds., 1967.). Groups of 10 Carworth CF1 S female mice, 18-21 g. each, were fasted 1.5 hours and were intubated with antagonist compounds at oral doses of 0, 5, 25, and 125 mg/kg or 0, 1, 3, 9, 27, and 81 mg/kg in 0.20 ml. of 1% Methocel (methylcellulose). The mice were challenged 30 minutes later with tetrabenazine (as the methane-sulfonate), 32 mg/kg intraperitoneally (dissolved in 0.20 ml. 0.05M KCl at pH 2.0). One hour after antagonist (30 minutes after tetrabenazine), the mice were examined for signs of exploratory activity and ptosis (eyelid closure). Normal exploratory activity (relief from sedation) was recorded when a mouse lifted by the tail from a group of 10 in a testing box and placed on a stainless steel testing box lid (12.5 × 8 inches with 0.33 inch mesh) either turned its head horizontally 30° in both directions or moved to the edge of the screen within 10 seconds after being placed on the screen. Relief from ptosis was recorded when exactly 2 seconds after placing the mouse facing the observer, lid closure was less than 50% in both eyes. The following table gives results. |ANTAGONISM OF TETRABENAZINE-INDUCED |DEPRESSION IN MICE ORALLY AT 1 HOUR |POST-DRUG

[1] = lid closure less than 50% in both eyes, read-out: ED50 for prevention of ptosis
[2] = relief from sedation (exploratory activity), read-out: ED50 for prevention of exploratory loss

Compound | ED50 [1] [mg/kg] | ED50 [2] [mg/kg]
CN(C)CCC=C1c2ccccc2CCc2ccccc21 [Amitriptyline, amitriptyline, reference compound] | 1.7 | 4.7
CCN1CCC2c3ccccc3N(c3ccccc3)C2C1C (stereo not drawn) [Ia] | 3 | 4.2
CC1C2C(CCN1C)c1ccccc1N2c1ccccc1 (stereo not drawn) [Ib] | 16 | 38
CCCN1CCC2c3ccccc3N(c3ccccc3)C2C1C (stereo not drawn) [Ic] | 14 | 38
CC(C)N1CCC2c3ccccc3N(c3ccccc3)C2C1C (stereo not drawn) [Id] | 11.2 | 19
CCC1C2C(CCN1C)c1ccccc1N2c1ccccc1 (stereo not drawn) [Ie] | 9.1 | 11.2
CCC1C2C(CCN1CC)c1ccccc1N2c1ccccc1 (stereo not drawn) [If] | 27 | 38
CC1NCCC2c3ccccc3N(c3ccccc3)C12 (stereo not drawn) [Ig] | 25 | 31
CCN1CC2C(CC1C)c1ccccc1N2c1ccccc1 (stereo not drawn) [Ij] | < 5 | < 5
